Experimental data from patent publication US20050245533A1, “Inhibitors of the 11-beta-hydroxysteroid dehydrogenaseType 1 enzyme and their therapeutic application” (priority 2004, published 2005).

Key:
male CD-1 mice = test: Mouse dehydrocorticosterone challenge model; type: in vivo; conditions: 100 mpk, followed by 11-DHC challenge, 30 min after challenge
Procedure: Male CD-1 (18-22 g) mice (Charles River, Madison, Wis.) were group housed and allowed free access to food and water. Mice are brought into a quiet procedure room for acclimation the night before the study. Animals are dosed with vehicle or compound at various times (pretreatment period) before being challenged with 11-dehydrocorticosterone (Steraloids Inc., Newport, R.I.). Thirty minutes after challenge, the mice are euthanized with CO2 and blood samples (EDTA) are obtained by cardiac puncture and immediately placed on ice. Blood samples were then spun, the plasma was removed, and the samples frozen until further analysis was performed. Corticosterone levels were obtained by ELISA (American Laboratory Prod., Co., Windham, N.H.) or HPLC/mass spectroscopy.

ob/ob mice = test: ob/ob mouse model of type 2 diabetes; type: in vivo; conditions: three weeks
Procedure: Male B6.VLep^ob(−/−) (ob/ob) mice and their lean littermates (Jackson Laboratory, Bar Harbor, Me.) were group housed and allowed free access to food (Purina 5015) and water. Mice were 6-7 weeks old at the start of each study. On day 0, animals were weighed and postprandial glucose levels determined (Medisense Precision-X™ glucometer, Abbott Laboratories). […] Animals were weighed, and postprandial glucose measurements were taken weekly throughout the study. On the last day of the study, 16 hours post dose (unless otherwise noted) the mice were euthanized via CO2, and blood samples (EDTA) were taken by cardiac puncture and immediately placed on ice. Whole blood measurements for HbA1c were taken with hand held meters (A1c NOW, Metrika Inc., Sunnyvale Calif.). Blood samples were then spun and plasma was removed and frozen until further analysis. The plasma triglyceride levels were determined according to instructions by the manufacturer (Infinity kit, Sigma Diagnostics, St. Louis Mo.).

[1] = target: T1, truncated human 11β-HSD-1 enzyme (24-287AA) (Homo sapiens, UniProt P28845); test: human 11β-HSD-1 enzymatic Scintillation Proximity Assay (SPA); type: biochemical
T1 construct: truncated human 11β-HSD-1 enzyme (24-287AA); made in house; host or cells: E. coli (lysate)
Procedure: The ability of test compounds to inhibit human 11-βHSD-1 enzymatic activity in vitro was evaluated in a Scintillation Proximity Assay (SPA). Tritiated-cortisone substrate, NADPH cofactor and titrated compound were incubated with truncated human 11β-HSD-1 enzyme (24-287AA) at room temperature to allow the conversion to cortisol to occur. The reaction was stopped by adding a non-specific 11β-HSD inhibitor, 18β-glycyrrhetinic acid. The tritiated cortisol generated was then captured by a mixture of an anti-cortisol monoclonal antibody and SPA beads coated with anti-mouse antibodies. The reaction plate was shaken at room temperature and the radioactivity bound to SPA beads was then measured on a β-scintillation counter. The 11-βHSD-1 assay was carried out in 96-well microtiter plates in a total volume of 220 μl. To start the assay, 188 μl of master mix which contains 17.5 nM ^3H-cortisone, 157.5 nM cortisone, and […] NADPH was added to the wells. In order to drive the reaction in the forward direction, 1 mM G-6-P was also added. […] After shaking for 30 minutes, plates were read on a liquid scintillation counter Topcount. Percent inhibition was calculated based on the background and the maximal signal. […] Percent of inhibition of each compound was calculated relative to the maximal signal and IC50 curves were generated. […]

human 11-β-HSD-2 = target: T2, human 11-β-HSD-2 (Homo sapiens, UniProt P80365); test: 11β-HSD-2 Scintillation Proximity Assay (tritiated cortisol, NAD+); type: biochemical; conditions: human enzyme, SPA
T2 sequence (P80365 1-405): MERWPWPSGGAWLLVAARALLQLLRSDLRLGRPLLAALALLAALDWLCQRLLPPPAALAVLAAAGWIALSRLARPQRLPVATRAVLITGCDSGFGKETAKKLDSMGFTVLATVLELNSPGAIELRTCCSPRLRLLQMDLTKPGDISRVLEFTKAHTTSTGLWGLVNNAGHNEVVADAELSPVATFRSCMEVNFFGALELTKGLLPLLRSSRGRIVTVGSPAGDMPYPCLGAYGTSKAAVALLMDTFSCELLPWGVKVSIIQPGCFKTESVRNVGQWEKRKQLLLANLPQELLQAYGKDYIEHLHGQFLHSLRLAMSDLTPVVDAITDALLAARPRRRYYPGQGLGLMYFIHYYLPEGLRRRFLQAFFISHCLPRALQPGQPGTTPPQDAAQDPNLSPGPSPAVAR

T1 sequence (P28845 24-287): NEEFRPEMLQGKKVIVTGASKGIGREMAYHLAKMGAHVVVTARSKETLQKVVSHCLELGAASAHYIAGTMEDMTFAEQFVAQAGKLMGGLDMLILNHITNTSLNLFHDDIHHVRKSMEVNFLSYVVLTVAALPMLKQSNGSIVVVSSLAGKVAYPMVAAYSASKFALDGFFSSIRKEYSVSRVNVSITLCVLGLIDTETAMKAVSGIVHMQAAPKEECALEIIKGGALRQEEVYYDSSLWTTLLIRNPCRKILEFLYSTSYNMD

IC50 [1]: 34 nM | IC50 (human 11-β-HSD-2): > 10000 nM
Compound: CC(C(=O)NC1C2CC3CC(C2)CC1C3)N1CCC(O)CC1 (stereo not shown) [Compound C, N-2-Adamantyl-2-(4-hydroxypiperidin-1-yl)propanamide]
Plasma corticosterone level (male CD-1 mice; pretreatment period 0.5 hours): 203 ± 19 | Plasma corticosterone level (male CD-1 mice; pretreatment period 5 hours): 382 ± 40 | % HbA1c (ob/ob mice; 30 mpk twice daily): 7.4 ± 0.7% | Plasma glucose (ob/ob mice; 30 mpk twice daily): 227 ± 17 mg/dL | Plasma triglycerides (ob/ob mice; 30 mpk twice daily): 288 ± 26 mg/dL | % HbA1c (ob/ob mice; 100 mpk twice daily): 5.7 ± 0.3% | Plasma glucose (ob/ob mice; 100 mpk twice daily): 186 ± 18 mg/dL | Plasma triglycerides (ob/ob mice; 100 mpk twice daily): 323 ± 34 mg/dL
